Measurements taken from article PMC6009894, “Molecular modelling insights into a physiologically favourable approach to eicosanoid biosynthesis inhibition through novel thieno[2,3-b]pyridine derivatives” (Journal of Enzyme Inhibition and Medicinal Chemistry, 2018).
Several values for one entry are separate records, joined by “and”; a condition that tells them apart may be missing. Identical values can stand only once.

Key:
[1] = system: carrageenan-induced rat paw oedema; experiment: carrageenan-induced rat paw oedema assay; type: in vivo, Sprague–Dawley rats; details: for Inhibition of acute inflammation % inh / Swel (mean difference in rat paw volume between right and left paw): dose equivalent to 70 mg kg-1 ibuprofen; for Swel (mean difference in rat paw volume between right and left paw): DMSO; for inflammation reduction % (4h): rat paw oedema, 4 h time interval, subcutaneous, equimolar to ibuprofen 70 mg kg-1
Description: According to a priori test results, experiments were conducted on young adult male Sprague–Dawley rats (5 rats per group), weighing 140–170 g. The animals were housed at cages in a temperature controlled (25 ± 1 °C) environment and were fed ad libitum with standard laboratory chow and allowed free access to water. […] The animal protocol is in accordance with the Animal Ethical Care regulations in the Faculty of Pharmacy, Helwan University.
Compounds (equimolar to the reference drug) were dissolved in DMSO and administrated subcutaneously. One hour later, paw oedema was induced by subplantar injection of 0.1 ml of 1% carrageenan (Sigma-Aldrich, St. Louis, MO) into the right hind paw. Paw volume was measured using a water plethysmometer (Basile, Comerio, Italy). The difference between the right and left paw volume was measured at 1, 2, 3, and 4 h after induction of inflammation.
The control group (five rats per group) received DMSO subcutaneously and carrageenan in the subplantar region. Results were expressed as percentage inhibition of inflammation.

5-LOX = biological target: T1, 5-LOX (Homo sapiens, UniProt P09917); experiment: 5-LOX Inhibitor Screening Assay Kit (Cayman); type: biochemical; details: for 5-LOX IC50 level: in words
T1 sequence (P09917 1-674): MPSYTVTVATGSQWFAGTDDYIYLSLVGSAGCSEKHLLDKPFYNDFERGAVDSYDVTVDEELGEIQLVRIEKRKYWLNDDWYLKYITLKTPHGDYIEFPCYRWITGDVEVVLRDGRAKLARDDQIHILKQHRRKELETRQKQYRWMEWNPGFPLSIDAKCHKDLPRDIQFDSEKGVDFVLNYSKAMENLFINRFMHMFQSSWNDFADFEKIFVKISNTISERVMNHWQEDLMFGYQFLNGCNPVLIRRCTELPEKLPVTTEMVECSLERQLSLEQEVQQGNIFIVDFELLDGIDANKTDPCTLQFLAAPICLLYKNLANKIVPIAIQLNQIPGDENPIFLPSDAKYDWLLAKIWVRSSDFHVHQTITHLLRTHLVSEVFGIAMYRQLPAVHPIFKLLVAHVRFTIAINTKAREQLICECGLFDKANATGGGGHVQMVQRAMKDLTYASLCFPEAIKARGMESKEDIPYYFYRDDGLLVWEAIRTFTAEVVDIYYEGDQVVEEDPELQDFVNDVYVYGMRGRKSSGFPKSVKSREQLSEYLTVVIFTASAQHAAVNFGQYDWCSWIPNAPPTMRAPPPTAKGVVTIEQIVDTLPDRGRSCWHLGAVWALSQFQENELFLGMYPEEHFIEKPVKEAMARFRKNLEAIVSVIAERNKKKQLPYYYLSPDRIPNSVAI
Description: (§1) The used protocol was according to the manufacturer protocol guide and instructions using ELISA plate reader.

COX-2 (human) = biological target: T2, COX-2 (human) (Homo sapiens, UniProt P35354); experiment: COX-2 (human) Inhibitor Screening Assay Kit (Cayman); type: biochemical; details: for selectivity index COX-2/COX-1: towards COX-2 than COX-1
T2 construct: purchased Cayman (Ann Arbor, MI) 701080
T2 sequence (P35354 18-604): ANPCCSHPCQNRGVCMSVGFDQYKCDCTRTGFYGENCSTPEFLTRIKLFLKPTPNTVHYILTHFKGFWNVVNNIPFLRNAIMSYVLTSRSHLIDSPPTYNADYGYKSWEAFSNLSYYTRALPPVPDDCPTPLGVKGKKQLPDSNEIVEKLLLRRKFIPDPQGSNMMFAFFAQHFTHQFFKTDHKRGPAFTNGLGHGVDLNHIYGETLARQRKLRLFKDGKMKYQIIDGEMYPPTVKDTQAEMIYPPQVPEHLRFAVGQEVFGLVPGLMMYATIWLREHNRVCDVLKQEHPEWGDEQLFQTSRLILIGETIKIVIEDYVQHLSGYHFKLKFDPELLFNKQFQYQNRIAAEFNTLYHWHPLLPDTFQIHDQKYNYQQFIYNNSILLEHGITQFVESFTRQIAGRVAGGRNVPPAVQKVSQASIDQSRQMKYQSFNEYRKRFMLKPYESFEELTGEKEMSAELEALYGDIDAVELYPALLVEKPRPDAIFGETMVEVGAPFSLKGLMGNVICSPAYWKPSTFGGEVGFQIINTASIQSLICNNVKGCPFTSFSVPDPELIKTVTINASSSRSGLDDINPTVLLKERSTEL
Description: as §1

COX-1 (human) = biological target: T3, COX-1 (human) (Homo sapiens, UniProt P23219); experiment: COX-1 (human) Inhibitor Screening Assay Kit (Cayman); type: biochemical
T3 construct: purchased Cayman (Ann Arbor, MI) 701070
Description: as §1

T3 sequence (P23219 24-599): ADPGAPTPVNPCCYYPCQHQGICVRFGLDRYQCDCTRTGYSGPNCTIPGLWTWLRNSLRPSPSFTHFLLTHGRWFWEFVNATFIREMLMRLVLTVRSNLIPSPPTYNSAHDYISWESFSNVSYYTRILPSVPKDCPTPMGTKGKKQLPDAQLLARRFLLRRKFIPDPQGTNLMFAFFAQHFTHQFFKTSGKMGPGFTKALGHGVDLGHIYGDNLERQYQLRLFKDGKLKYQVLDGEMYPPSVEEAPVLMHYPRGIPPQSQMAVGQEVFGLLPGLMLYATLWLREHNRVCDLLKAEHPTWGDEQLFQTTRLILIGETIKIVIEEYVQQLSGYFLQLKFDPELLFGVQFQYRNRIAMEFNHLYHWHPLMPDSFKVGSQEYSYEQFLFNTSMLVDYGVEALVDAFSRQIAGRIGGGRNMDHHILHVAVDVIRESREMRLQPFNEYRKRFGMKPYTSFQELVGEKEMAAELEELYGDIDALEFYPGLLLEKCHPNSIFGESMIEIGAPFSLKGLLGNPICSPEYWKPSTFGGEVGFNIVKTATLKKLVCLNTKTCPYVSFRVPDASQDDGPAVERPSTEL

Compound | Inhibition of acute inflammation % inh ([1]; 1 h) | Swel (mean difference in rat paw volume between right and left paw) ([1]; 1 h after carrageenan) | Inhibition of acute inflammation % inh ([1]; 2 h) | Swel (mean difference in rat paw volume between right and left paw) ([1]; 2 h after carrageenan) | Inhibition of acute inflammation % inh ([1]; 3 h) | Swel (mean difference in rat paw volume between right and left paw) ([1]; 3 h after carrageenan) | Inhibition of acute inflammation % inh ([1]; 4 h) | Swel (mean difference in rat paw volume between right and left paw) ([1]; 4 h after carrageenan) | inflammation reduction % (4h) [1] | 5-LOX inhibition, times less potent than 7a (5-LOX; compared with 7a) | 5-LOX IC50 level (5-LOX) | IC50 (COX-2 (human)) | IC50 (COX-1 (human)) | affinity towards COX-1 over COX-2 (COX-1 (human)) | melting point | 5-LOX inhibition, times higher than 8a (5-LOX; compared with 8a) | 5-LOX inhibition, times higher than 8c (5-LOX; compared with 8c) | COX-2 inhibition, times higher than 8a (COX-2 (human); compared with 8a) | COX-2 inhibition, times higher than 8c (COX-2 (human); compared with 8c) | selectivity index COX-2/COX-1 (COX-2 (human))
Cc1cc(C)c2c(n1)sc1c(=O)n(/N=C/c3ccc(Cl)cc3)nnc12 [Compound 8b, 7,9-Dimethyl-3-[(4-chloro-phenyl-methylene)amino]pyrido[3ˈ,2ˈ:4,5] thieno [3,2-d][1,2,3]triazin-4(3H)-one] | 0% | 0.23 | 0% | 0.27 | 56.54% | 0.24 | 78.23% | 0.14 | 78.2% and 78.23% | approximately 90 times | micromolar level | 36 µM | 19.9 µM | approximately 2 fold | 255 to 257 °C |  |  |  |  | 
COc1ccc(/C=N/n2nnc3c(sc4nc(C)cc(C)c43)c2=O)cc1 [Compound 8c, 7,9-Dimethyl-3-[(4-methoxy-phenyl-methylene)amino]pyrido[3ˈ,2ˈ:4,5]thieno [3,2-d][1,2,3]triazin-4(3H)-one] | 0% | 0.246 | 34.61% | 0.17 | 41.78% | 0.316 | 79.36% | 0.13 | 79.4% and 79.36% |  | micromolar level | 19 µM | 7.7 µM and 7.66 µM | approximately 2 fold | 240 to 242 °C |  |  |  |  | 
Cc1cc(C)c2c(N)c(C(=O)NN=Cc3ccccc3)sc2n1 [Compound 7a, 3-Amino-4,6-dimethyl-thieno [2,3-b] pyridine-2-carboxylic acid benzylidene-hyrazide] | 37.68% | 0.143 | 42.3% | 0.15 | 71.2% | 0.156 | 73.54% | 0.16 | 73.5% and 73.54% |  | nanomolar level | 9.99 µM | 45.9 µM |  |  | 35 times | 87 times | 3.6 times | 1.8 times | 4.6
Cc1cc(C)c2c(N)c(C(=O)N/N=C/c3ccc(Cl)cc3)sc2n1 [Compound 7b, 3-Amino-4,6-dimethyl-thieno [2,3-b] pyridine-2-carboxylic acid (4-chloro-benzylidene)-hyrazide] | 22.1% | 0.17 | 35.62% | 0.16 | 54.75% | 0.25 | 73.02% | 0.17 | 73.02% |  | nanomolar level | 7.5 µM and 7.52 µM | 31.8 µM |  | 280 to 282 °C |  |  |  |  | 4.2
